According to ChEMBL document CHEMBL5356944, “Pharmacological overview of hederagenin and its derivatives” (RSC Med Chem, 2023):
Converted amounts (≈) assume the structure as drawn.

Experiments:
A549 [1] = assay: Antitumor activity against human A549 cells assessed as cell growth inhibition
Leishmania mexicana = assay: Antileishmanial activity against Leishmania mexicana amastigotes assessed as effective dose; conditions: read-out: ED50 (the source's name)
RAW264.7 [2] = assay: Antiinflammatory activity in mouse RAW264.7 cells assessed as inhibition of LPS/IFNgamma-induced nitric oxide production; format: functional
MCF7 = assay: Cytotoxicity against human MCF7 cells assessed as reduction in cell viability measured after 72 hrs by MTT assay; format: functional, cell-based; conditions: MCF7, 72 h
A-431 = assay: Cytotoxicity against human A-431 cells assessed as reduction in cell viability measured after 72 hrs by MTT assay; format: functional, cell-based; conditions: A-431, 72 h
A549 [3] = assay: Cytotoxicity against human A549 cells assessed as reduction in cell viability measured after 72 hrs by MTT assay; format: functional, cell-based; conditions: A549, 72 h
HL-60 = assay: Cytotoxicity against human HL-60 cells assessed as reduction in cell viability measured after 72 hrs by MTT assay; format: functional, cell-based; conditions: HL-60, 72 h
HT-1080 = assay: Cytotoxicity against human HT-1080 cells assessed as reduction in cell viability measured after 72 hrs by MTT assay; format: functional, cell-based; conditions: HT-1080, 72 h
T47D = assay: Cytotoxicity against human T47D cells assessed as reduction in cell viability measured after 72 hrs by MTT assay; format: functional, cell-based
BT-20 = assay: Cytotoxicity against human BT-20 cells assessed as reduction in cell viability incubated for 48 hrs by Alamar blue assay; format: functional, cell-based; conditions: BT-20, 48 h
Streptococcus mutans = assay: Antibacterial activity against Streptococcus mutans ATCC 25175 assessed as reduction in microbial growth after 24 hrs by agar well diffusion assay; format: functional
A549 [4] = assay: Cytotoxicity against human A549 cells assessed as reduction in cell growth incubated for 48 hrs by Alamar blue assay; format: functional, cell-based; conditions: A549, 48 h
LoVo [5] = assay: Antiproliferative activity against human LoVo cells assessed as reduction in cell viability incubated for 48 hrs by MTT assay; format: functional, cell-based
[6] = Half life in rat plasma; format: ADME, cell-free
HeLa = assay: Antiproliferative activity against human HeLa cells assessed as reduction in cell viability measured after 72 hrs by MTT assay; format: functional, cell-based
[7] = Elimination rate constant in rat plasma; format: ADME, cell-free
A549 [8] = assay: Cytotoxicity against human A549 cells assessed as reduction in cell viability measured after 24 hrs by MTT assay; format: functional, cell-based; conditions: A549, 24 h
NCI-H1299 = assay: Inhibition of colony formation in human NCI-H1299 cells assessed as reduction in number of colonies measured after 24 to 48 hrs by crystal violet staining based assay; format: functional; conditions: time 24-48 hrs
Staphylococcus aureus = assay: Antibacterial activity against Staphylococcus aureus KCTC 503 assessed as reduction in bacterial growth; format: functional
Toxoplasma gondii = assay: Antiparasitic activity against Toxoplasma gondii infected in human HeLa cells assessed as inhibition of cell growth relative to control; format: functional
HepG2 = assay: Antiproliferative activity against human HepG2 cells assessed as reduction in cell viability after 48 hrs by MTT assay; format: functional, cell-based; conditions: HepG2, 48 h
Enterococcus faecalis = assay: Antibacterial activity against Enterococcus faecalis assessed as reduction in bacterial cell growth; format: functional
LoVo [9] = assay: Antiproliferative activity against human LoVo cells assessed as reduction in cell viability incubated for 24 hrs by MTT assay; format: functional, cell-based
[10] = Tmax in rat plasma; format: ADME, cell-free
A549 [11] = assay: Inhibition of colony formation in human A549 cells measured after 24 to 48 hrs by crystal violet staining based analysis; format: functional; conditions: time 24-48 hrs
[12] = Anticancer activity against human KBV cells assessed as cell survival rate in presence of paclitaxel
[13] = Anticancer activity against human KBV cells xenografted in nude mouse assessed as reduction in tumor weight at 10 mg/kg relative to control; format: functional; set-up: scale not given: the % may be the effect or the level left
[14] = Cytotoxicity against mouse L929 cells assessed as reduction in cell viability; format: toxicity, cell-based
RAW264.7 [15] = assay: Anti-inflammatory activity against mouse RAW264.7 cells assessed as inhibition of LPS-induced NO production; format: functional, cell-based

**Q.** Which IC50 (A549 [1]) does the source give for `C[C@@H]1O[C@@H](O[C@H]2[C@H](O[C@H]3CC[C@@]4(C)[C@@H](CC[C@]5(C)[C@@H]4CC=C4[C@@H]6CC(C)(C)CC[C@]6(C(=O)O)CC[C@]45C)[C@]3(C)CO)OC[C@H](O[C@@H]3O[C@H](CO)[C@@H](O)[C@H](O)[C@H]3O)[C@@H]2O)[C@H](O)[C@H](O)[C@H]1O` [HEDERACOLCHISIDE A] here?
**A.** The IC50 was 5.8 µM.

**Q.** Which EC50 (Leishmania mexicana) does the source give for `CC1(C)CC[C@]2(C(=O)O)CC[C@]3(C)C(=CC[C@@H]4[C@@]5(C)CC[C@H](O)[C@@](C)(C=O)[C@@H]5CC[C@]43C)[C@@H]2C1` here?
**A.** The EC50 was 9.6 µM.

**Q.** For `CC1(C)CC[C@]2(C(=O)O)CC[C@]3(C)C(=CC[C@@H]4[C@@]5(C)CC[C@@H]6O[C@H](c7ccccc7)OC[C@@]6(C)[C@@H]5CC[C@]43C)[C@@H]2C1`, which EC50 (Leishmania mexicana) is on record?
**A.** Its EC50 is 10 µM.

**Q.** For `COC(=O)[C@]12CCC(C)(C)C[C@H]1C1=CC[C@@H]3[C@@]4(C)CC[C@@H]5O[C@H](c6ccccc6)OC[C@@]5(C)[C@@H]4CC[C@@]3(C)[C@]1(C)CC2`, which EC50 (Leishmania mexicana) is on record?
**A.** Its EC50 is 2.9 µM.

**Q.** Which EC50 (Leishmania mexicana) does the source give for `CC1(C)CC[C@]2(C(=O)O)CC[C@]3(C)C(=CC[C@@H]4[C@@]5(C)CC[C@@H]6OC(C)(C)OC[C@@]6(C)[C@@H]5CC[C@]43C)[C@@H]2C1` here?
**A.** The EC50 was 83.6 µM.

**Q.** For `CC(=O)OC[C@@]1(C)[C@@H]2CC[C@]3(C)[C@H](CC=C4[C@@H]5CC(C)(C)CC[C@]5(NC(=O)N5CCCC5)CC[C@]43C)[C@@]2(C)CC[C@@H]1O`, which EC50 (Leishmania mexicana) is on record?
**A.** The EC50 was 10.4 µM.

**Q.** With `CC1(C)CC[C@]2(NC(=O)N3CCCC3)CC[C@]3(C)C(=CC[C@@H]4[C@@]5(C)CC[C@@H]6OC(C)(C)OC[C@@]6(C)[C@@H]5CC[C@]43C)[C@@H]2C1` as the compound, how does the EC50 (Leishmania mexicana) read?
**A.** The EC50 was 92 µM.

**Q.** With `COC(=O)[C@]12CCC(C)(C)C[C@H]1C1=CC[C@@H]3[C@@]4(C)C=C(C#N)C(=O)[C@@](C)(CO)[C@@H]4CC[C@@]3(C)[C@]1(C)CC2` as the compound, how does the Activity (RAW264.7 [2]) read?
**A.** Its Activity is 1.6 µM.

**Q.** And the EC50 (MCF7)?
**A.** Its EC50 is 2.25 µM.

**Q.** What about the EC50 (A-431) of the same compound?
**A.** The EC50 was 1.7 µM.

**Q.** And the EC50 (A549 [3])?
**A.** The EC50 was 7.94 µM.

**Q.** What about the EC50 (HL-60) of the same compound?
**A.** Its EC50 is 0.548 µM.

**Q.** What about the EC50 (HT-1080) of the same compound?
**A.** The EC50 was 3.03 µM.

**Q.** And the EC50 (T47D)?
**A.** The EC50 was 3.91 µM.

**Q.** Which EC50 (Leishmania mexicana) does the source give for `C[C@H](O)[C@H]1OC(CC2OC[C@@]3(C)[C@@H]4CC[C@]5(C)[C@H](CC=C6[C@@H]7CC(C)(C)CC[C@]7(C(=O)O)CC[C@]65C)[C@@]4(C)CC[C@@H]3O2)[C@@H](O)[C@@H]1O` (some centres undefined) here?
**A.** Its EC50 is 10.3 µM.

**Q.** Which results are given for `CC1(C)CC[C@]2(C(=O)O)CC[C@]3(C)C(=CC[C@@H]4[C@@]5(C)CC[C@H](O)[C@@](C)(CO)[C@@H]5CC[C@]43C)[C@@H]2C1` [HEDERAGENIN]?
**A.** IC50 (BT-20): 11.8 µM; MIC (Streptococcus mutans): 9.7 µg/mL; IC50 (A549 [4]): 26.2 µM; IC50 (LoVo [5]): 1.17 µM; half-life [6]: 44.1 min; IC50 (HeLa): 17.4 µg/mL (≈ 36.9 µM); Kel [7]: 0.96 h⁻¹; IC50 (A549 [8]): > 50 µM; INH (NCI-H1299): 20 µM; MIC (Staphylococcus aureus): 16 µg/mL (≈ 33.8 µM); inhibition (INH) (Toxoplasma gondii): 64.8%; IC50 (HepG2): 35.9 µM; MIC (Enterococcus faecalis): 128 µg/mL (≈ 271 µM); IC50 (LoVo [9]): 1.39 µM; Tmax [10]: 18.3 min; INH (A549 [11]): 10 µM; Activity [12]: 149.47%

**Q.** For `O=c1[nH]cc(F)c(=O)[nH]1` [FLUOROURACIL], which IC50 (HepG2) is on record?
**A.** The IC50 was 16.4 µM.

**Q.** For `Cc1cncc(C(=O)OCCOC(=O)[C@]23CCC(C)(C)C[C@H]2C2=CC[C@@H]4[C@@]5(C)CC[C@H](O)[C@@](C)(CO)[C@@H]5CC[C@@]4(C)[C@]2(C)CC3)n1`, which IC50 (A549 [8]) is on record?
**A.** The IC50 was 3.45 µM.

**Q.** For `CC(=O)OC[C@H](OC(C)=O)[C@H](OC(C)=O)[C@@H](OC(C)=O)[C@@H]1OC[C@@]2(C)[C@@H]3CC[C@]4(C)[C@H](CC=C5[C@@H]6CC(C)(C)CC[C@]6(C(=O)O)CC[C@]54C)[C@@]3(C)CC[C@@H]2O1`, which EC50 (Leishmania mexicana) is on record?
**A.** The EC50 was 7.2 µM.

**Q.** With `CC1(C)CC[C@]2(C(=O)OCc3ccccc3)CC[C@]3(C)C(=CC[C@@H]4[C@@]5(C)Cc6nccnc6[C@@](C)(CO)[C@@H]5CC[C@]43C)[C@@H]2C1` as the compound, how does the Activity [13] read?
**A.** Its Activity is 41.88%.

**Q.** What about the Activity [12] of the same compound?
**A.** Its Activity is 25.34%.

**Q.** For `COC(=O)[C@]12CCC(C)(C)C[C@H]1C1/C(=N/O)C[C@@H]3[C@@]4(C)CC[C@H](OC(C)=O)[C@@](C)(COC(C)=O)[C@@H]4CC[C@@]3(C)[C@]1(C)CC2` (some centres undefined), which IC50 [14] is on record?
**A.** The IC50 was 21.2 µM.

**Q.** What about the IC50 (HepG2) of the same compound?
**A.** The IC50 was 1.88 µM.

**Q.** With `CC1(C)CC[C@]2(N=C=O)CC[C@]3(C)C(=CC[C@@H]4[C@@]5(C)CC[C@@H]6OC(C)(C)OC[C@@]6(C)[C@@H]5CC[C@]43C)[C@@H]2C1` as the compound, how does the EC50 (Leishmania mexicana) read?
**A.** The EC50 was 0.9 µM.

**Q.** With `C[C@]12CC[C@H](O)[C@@](C)(CO)[C@@H]1CC[C@]1(C)[C@@H]2CC=C2[C@@H]3C[C@](C)(C(=O)O)[C@@H](O)C[C@]3(C(=O)O)CC[C@]21C` as the compound, how does the IC50 (RAW264.7 [15]) read?
**A.** The IC50 was 0.078 µM.

**Q.** Which EC50 (Leishmania mexicana) does the source give for `CC1(C)CC[C@]2(NC(=O)N3CCC[C@H]3C(=O)O)CC[C@]3(C)C(=CC[C@@H]4[C@@]5(C)CC[C@@H]6OC(C)(C)OC[C@@]6(C)[C@@H]5CC[C@]43C)[C@@H]2C1` here?
**A.** Its EC50 is 81.1 µM.

**Q.** Which EC50 (Leishmania mexicana) does the source give for `CC1(C)CC[C@]2(C(=O)OCc3ccccc3)CC[C@]3(C)C(=CC[C@@H]4[C@@]5(C)CC[C@@H]6O[C@H]([C@H]7O[C@H](O)[C@H](O)[C@@H](O)[C@@H]7O)OC[C@@]6(C)[C@@H]5CC[C@]43C)[C@@H]2C1` here?
**A.** Its EC50 is 6 µM.

**Q.** For `CC1(C)CC[C@]2(C(=O)OCc3ccccc3)CC[C@]3(C)C(=CC[C@@H]4[C@@]5(C)CC[C@@H]6O[C@H]([C@H](OCc7ccccc7)[C@@H](OCc7ccccc7)[C@H](COCc7ccccc7)OCc7ccccc7)OC[C@@]6(C)[C@@H]5CC[C@]43C)[C@@H]2C1`, which EC50 (Leishmania mexicana) is on record?
**A.** Its EC50 is 4.5 µM.
